{"source": "patent US12653865B2", "about": "“Dual-agonist compound for both GLP-1 and GIP receptors and application thereof” (Jiangsu Hengrui Pharmaceuticals Co., Ltd., priority 2020, dated 2026)", "key": {"[1]": {"assay": "Stability in human plasma (LC-MS)", "type": "in vitro ADME", "conditions": "0 min (standard 100%)", "method": "5 μL of each of samples at concentrations of 20 ng/mL, 50 ng/mL, 100 ng/mL, 200 ng/mL, 500 ng/mL, 1000 ng/mL, 2000 ng/mL, 5000 ng/mL and 10000 ng/mL was added to 45 μL of human plasma. The content of the compounds in the samples was determined by the LC-MS method and a standard curve was formed. 5 μL of a 1 mg/mL polypeptide solution was added to 45 μL of human plasma. […] With the content at 0 min as the standard (100%), the relative content of the retained compounds in the samples at other time points was calculated."}, "[2]": {"tested_on": "normal mice", "assay": "Blood glucose in normal mice after single subcutaneous injection and intraperitoneal glucose", "type": "in vivo, C57BL/6 mice", "conditions": "10 nmol/kg sc; for Blood glucose: glucose ip 18 h later", "procedure": "18 h later, a glucose solution at a concentration of 0.2 g/mL was intraperitoneally injected. Blood glucose values were measured by collecting blood from the tail of mice at time points of 0 min, 15 min, 30 min, 60 min, and 120 min according to the experimental design. The specific procedures were as follows: the mouse was physically immobilized with the tail exposed, and a little was cut off the tail, then the tail was squeezed to bleed, and blood glucose was determined using a Roche active glucometer after the 1 st drop of blood was discarded. The area under the blood glucose curve (AUC) was calculated from the results of all points."}, "[3]": {"tested_on": "diet-induced obese mice", "assay": "Body weight and fat mass in diet-induced obese mice", "type": "in vivo, C57BL/6 mice", "conditions": "induced obese mice, 10 nmol/kg sc", "procedure": "High-fat food-induced obese male C57BL/6 mice (weighing 35-55 g, aged 10-12 weeks, purchased from Shanghai Jiesijie Laboratory Animal Co., Ltd.) were tested. […] According to the experimental design, the body weight of each mouse was measured and recorded on day 0, day 3, day 6 and so on to day 27, the average body weight of each group of mice was calculated, and weight change curves were plotted by taking the body weight on the first day as the standard. At the end, the fat and other visceral organs of each part of the mice were taken out and weighed, and the viscera/brain ratio for fat in each part of each mouse was calculated. The effect of the drug on the fat was determined by comparing the change in the organ/brain ratio for fat of different parts of each group of mice."}}, "note": "*1 amine or outer side, *2 acyl side, *3 side chain or, on linkers, in order; H or OH if unused. Where a SMILES comes first, the peptide text is derived from it. Side-chain parts run from the residue outwards. [ ]: non-standard residue; d: D form. The star is where a group is joined. C20 diacid = O=C(O)CCCCCCCCCCCCCCCCCCC(=O)*; γGlu = O=C(O)[C@H](CCC(=O)[*:2])N[*:1]; AEEA = NCCOCCOCC(=O)O; Aib = CC(C)(N)C(=O)O"}
{"molecule": "CC[C@H](C)[C@H](NC(=O)[C@H](CCCCN)NC(=O)[C@H](CC(=O)O)NC(=O)[C@H](CCCCNC(=O)COCCOCCNC(=O)COCCOCCNC(=O)CC[C@H](NC(=O)CCCCCCCCCCCCCCCCCCC(=O)O)C(=O)O)NC(=O)[C@H](Cc1ccc(O)cc1)NC(=O)[C@@H](NC(=O)[C@H](CO)NC(=O)[C@H](Cc1ccc(O)cc1)NC(=O)[C@H](CC(=O)O)NC(=O)[C@H](CO)NC(=O)[C@@H](NC(=O)[C@H](Cc1ccccc1)NC(=O)[C@@H](NC(=O)CNC(=O)[C@H](CCC(=O)O)NC(=O)C(C)(C)NC(=O)[C@@H](N)Cc1ccc(O)cc1)[C@@H](C)O)[C@@H](C)O)[C@@H](C)CC)C(=O)N[C@@H](C)C(=O)N[C@@H](C)C(=O)N[C@@H](CCC(N)=O)C(=O)N[C@@H](CCC(=O)O)C(=O)N[C@@H](Cc1ccccc1)C(=O)N[C@H](C(=O)N[C@@H](CC(N)=O)C(=O)N[C@@H](Cc1c[nH]c2ccccc12)C(=O)N[C@@H](CC(C)C)C(=O)N[C@@H](CC(C)C)C(=O)N[C@@H](C)C(=O)NCC(=O)NCC(=O)N1CCC[C@H]1C(=O)N[C@@H](CO)C(=O)N[C@@H](CO)C(=O)NCC(=O)N[C@@H](C)C(=O)N1CCC[C@H]1C(=O)N1CCC[C@H]1C(=O)N1CCC[C@H]1C(=O)N[C@@H](CO)C(N)=O)C(C)C", "note": "[Compound 7#] (H-Y[Aib]EGTFTSDYSIYK([AEEA-AEEA-γGlu-C20 diacid])DKIAAQEFVNWLLAGGPSSGAPPPS-NH2)", "values": [{"measurement": "relative content of compounds retained in plasma", "setting": "[1]", "value": 100.00, "unit": "%"}, {"measurement": "reduction of area under the blood glucose curve compared to placebo", "setting": "[2]", "value": "more than 60%"}, {"measurement": "Blood glucose", "setting": "[2]; 0 min", "value": "4.4 ± 0.8", "unit": "mmol/L"}, {"measurement": "Blood glucose", "setting": "[2]; 15 min", "value": "6.7 ± 0.8", "unit": "mmol/L"}, {"measurement": "Blood glucose", "setting": "[2]; 30 min", "value": "6.2 ± 1.3", "unit": "mmol/L"}, {"measurement": "Blood glucose", "setting": "[2]; 60 min", "value": "5.7 ± 1.2", "unit": "mmol/L"}, {"measurement": "Blood glucose", "setting": "[2]; 120 min", "value": "3.8 ± 1.1", "unit": "mmol/L"}, {"measurement": "Changes in body weight", "setting": "[3]; Day 1", "value": 0, "unit": "%"}, {"measurement": "Changes in body weight", "setting": "[3]; Day 4", "value": "−11.0", "unit": "%"}, {"measurement": "Changes in body weight", "setting": "[3]; Day 7", "value": "−17.6", "unit": "%"}, {"measurement": "Changes in body weight", "setting": "[3]; Day 10", "value": "−22.6", "unit": "%"}, {"measurement": "Changes in body weight", "setting": "[3]; Day 13", "value": "−22.3", "unit": "%"}, {"measurement": "Changes in body weight", "setting": "[3]; Day 16", "value": "−22.7", "unit": "%"}, {"measurement": "Changes in body weight", "setting": "[3]; Day 19", "value": "−25.9", "unit": "%"}, {"measurement": "Changes in body weight", "setting": "[3]; Day 22", "value": "−23.9", "unit": "%"}, {"measurement": "Changes in body weight", "setting": "[3]; Day 25", "value": "−23.9", "unit": "%"}, {"measurement": "Changes in body weight", "setting": "[3]; Day 28", "value": "−25.5", "unit": "%"}]}
